Test results from patent publication US20260167622A1, “PAN-KRAS DEGRADING AGENT, AND PREPARATION METHOD THEREFOR AND USE THEREOF” (LEADINGTAC PHARMACEUTICAL (SHAOXING) CO., LTD., priority 2022, published 2026).

How the values were obtained:
Conditions in all cases: 25° C., 1 h
[1] = target: T1, Human KRAS WT (Homo sapiens, UniProt P01116); experiment: KRAS WT:GTP binding assay (HTRF kit)
T1 construct: purchased PerkinElmer
Experimental: Test Example 3: KRAS WT Binding Assay
In this method, the inhibitory effects of the compounds on the binding of KRAS WT to GTP were assayed by a homogeneous time-resolved fluorescence (HTRF) technique using a KRAS WT:GTP binding assay kit (PerkinElmer).
(§1) The experimental procedures were as follows (refer to the kit instructions for detailed test methods): the compounds of the present disclosure were each firstly dissolved in DMSO at a stock concentration of 20 mM. The stock solutions of the compounds were diluted in an equal gradient with DMSO, and then were subjected to second dilution with a buffer in the kit, so that the final concentrations of the test compounds in the reaction system were in a range of 0.02-5000 nM, and the final concentration of DMSO was 0.5%. […] After the incubation was completed, the fluorescence intensity of each well was measured at the excitation wavelength of 337 nm and the emission wavelengths of 620 nm and 665 nm with an EnVision microplate reader (PerkinElmer) in the HTRF mode, and Ratio values were calculated using the formula: Ratio=(665 nm/620 nm)×104. The inhibition rates of the compounds at each concentration were calculated by comparing the fluorescence intensity ratio with that of the control group. […]

[2] = target: T2, Human KRAS G12C (Homo sapiens, UniProt P01116, G12C); experiment: KRAS G12C:GTP binding assay (HTRF kit)
T2 construct: purchased PerkinElmer
Experimental: Test Example 4: KRAS G12C Binding Assay
In this method, the inhibitory effects of the compounds on the binding of KRAS G12C to GTP were assayed by a homogeneous time-resolved fluorescence (HTRF) technique using a KRAS G12C:GTP binding assay kit (PerkinElmer).
as §1

[3] = target: T3, Human KRAS G12D (Homo sapiens, UniProt P01116, G12D); experiment: KRAS-G12D/GTP binding assay (HTRF kit)
T3 construct: purchased PerkinElmer
Experimental: Test Example 1: KRAS G12D Binding Assay
In this method, the inhibitory effects of the compounds on the binding of KLRAS G12D to GTP were assayed by a homogeneous time-resolved fluorescence (HTRF) technique using a KLRAS-G12D/GTP binding assay kit (PerkinElmer).
as §1, with “a” for “a stock”, “mM, and then” for “mM. The stock solutions of the compounds were”, “gradient” for “gradient with DMSO, and then were subjected to second dilution”, “nm)×[…].” for “nm)×104.”

T3 sequence (P01116 1-188 isoform P01116-2 G12D): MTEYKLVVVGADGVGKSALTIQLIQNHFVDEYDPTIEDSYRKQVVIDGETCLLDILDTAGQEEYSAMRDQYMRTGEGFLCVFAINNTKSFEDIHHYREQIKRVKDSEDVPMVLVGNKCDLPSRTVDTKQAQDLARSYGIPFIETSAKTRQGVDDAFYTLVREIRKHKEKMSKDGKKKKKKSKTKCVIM
T2 sequence (P01116 1-188 isoform P01116-2 G12C): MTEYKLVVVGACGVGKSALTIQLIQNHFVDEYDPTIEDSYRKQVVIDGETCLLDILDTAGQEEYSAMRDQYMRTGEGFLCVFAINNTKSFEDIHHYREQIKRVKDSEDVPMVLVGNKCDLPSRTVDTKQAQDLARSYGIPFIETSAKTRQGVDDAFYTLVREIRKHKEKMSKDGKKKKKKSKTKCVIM
T1 sequence (P01116 1-188 isoform P01116-2): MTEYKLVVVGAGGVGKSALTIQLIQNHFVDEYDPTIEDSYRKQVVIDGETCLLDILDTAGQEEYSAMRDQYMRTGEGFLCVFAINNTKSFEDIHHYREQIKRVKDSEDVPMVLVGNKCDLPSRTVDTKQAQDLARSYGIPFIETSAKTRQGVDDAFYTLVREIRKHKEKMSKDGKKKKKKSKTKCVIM

IC50 [1] [µM]	IC50 [2] [µM]	IC50 [3] [µM]	SMILES
1 to 10	0.5 to 1	≤ 0.5	C#Cc1c(F)ccc2cc(O)cc(-c3ncc4c(N5CCC[C@@](C)(O)C5)nc(OCC5(CN6CCN(CC7CCC8(CC7)CCN(C(=O)c7ccc(Cl)c(N9CCC(=O)NC9=O)c7)CC8)CC6)CC5)nc4c3F)c12 [Example 1, (R)-1-(2-chloro-5-(9-((4-((1-(((7-(8-ethynyl-7-fluoro-3-hydroxynaphthalen-1-yl)-8-fluoro-4-(3-hydroxy-3-methylpiperidin-1-yl)pyrido[4,3-d]pyrimidin-2-yl)oxy)methyl)cyclopropyl)methyl)piperazin-1-yl)methyl)-3-azaspiro[5.5]undecane-3-carbonyl)phenyl)dihydropyrimidine-2,4(1H,3H)-dione]
0.5 to 1	≤ 0.5	≤ 0.5	CCc1cccc2cc(O)cc(-c3ncc4c(N5CCC[C@@](C)(O)C5)nc(OCC5(CN6CCN(CC7CCC8(CC7)CCN(C(=O)c7ccc(Cl)c(N9CCC(=O)NC9=O)c7)CC8)CC6)CC5)nc4c3F)c12 [Example 3, (R)-1-(2-chloro-5-(9-((4-((1-(((7-(8-ethyl-3-hydroxynaphthalen-1-yl)-8-fluoro-4-(3-hydroxy-3-methylpiperidin-1-yl)pyrido[4,3-d]pyrimidin-2-yl)oxy)methyl)cyclopropyl)methyl)piperazin-1-yl)methyl)-3-azaspiro[5.5]undecane-3-carbonyl)phenyl)dihydropyrimidine-2,4(1H,3H)-dione]
